Source: paper PMC11079024, “Identification of a family of species-selective complex I inhibitors as potential anthelmintics” (Nature Communications, 2024)
Where “and” joins values, the source holds several entries; their conditions need not be identical. Identical values can stand only once. Like-named read-outs stand apart in the source and are kept apart here.

Target: M. musculus (heart) complex I (Mus musculus, UniProt P03888+Q91WD5+Q9DC70)
Experiment: biochemical
Assay type: biochemical
Set-up: Complex I activity, dose-response data: unit not given here
Description: Six 8–10-week-old C57Bl/6 female mice (Charles River) were freshly dissected, and their livers and hearts collected into separate 1.5 mL microcentrifuge tubes. Organs were flash-frozen in liquid nitrogen and stored at −80 °C prior to use. The heart of a freshly slaughtered adult cow was obtained from a local abattoir (Peel Sausage Inc.), chopped into ~1-inch cubes and collected into 50 mL falcon tubes. Falcon tubes were flash-frozen in a container of dry ice and stored at −80 °C prior to use. Isolation of mitochondria from all mammalian tissue was carried out following the protocol described above. However, due to size, the initial homogenization of tissue was performed by 15 strokes in a dounce homogenizer (mouse heart) or with several 5 s pulses in small Nutribullet blender (cow heart). All mouse protocols for mouse care and dissection were reviewed and approved by the University of Toronto Animal Care Committee, in accordance with the Canadian Council on Animal Care.
The enzymatic activities of individual ETC complexes (I-IV) were assessed spectrophotometrically in isolated mitochondria using a Varioskan LUX Multimode plate reader (ThermoFisher Scientific). Mitochondrial pellets previously isolated were thawed on ice and resuspended in ice-cold isolation buffer (250 mM sucrose, 10 mM Tris (pH 7.5), 1 mM EDTA). The BCA assay (Walker, 1994) was used to quantify the protein concentration of mitochondria suspensions; solutions were diluted to a concentration of 0.2 mg/mL for use in all assays. For the complex I assay, mitochondria pellets were freeze-thawed on ice three times to increase enzyme accessibility. […] 20 μL mitochondria suspension was then added/mixed with a pipette to initiate the reaction. Immediately following the addition of mitochondria, absorbance was measured (complex I and II: 600 nm; complex III and IV: 550 nm) in 30 s intervals over 15 min. Enzymatic activity was determined in each reaction by plotting absorbance versus time and calculating the slope of the curve during the initial linear phase of the reaction. […] Percent activity of each complex was calculated by dividing the enzyme-specific activity of each well by the enzyme-specific activity of the corresponding solvent controls.
Chemical solutions were prepared in complex I assay buffer composed of 25 mM KPi buffer (pH 7.5), 3 mg/mL bovine serum albumin (BSA), 80 μM NADH, 60 μM decylubiquinone, 160 μM DCIP, 2 μM antimycin A and 2 mM KCN.
For preliminary screens of hit compounds, compounds were screened at 100 μM; data are the average of at least three biological replicates. The complex I and II activity assays were used for additional dose-response experiments. […] For dose responses of benzimidazole analogs, data represent the average of two biological replicates. For all other dose-responses, data represent the average of at least three biological replicates.

[1] = M. musculus (heart) mitochondria, mean of replicates, read-out: percent (%) in vitro complex I activity relative to solvent control
[2] = M. musculus (heart) mitochondria, single replicate, read-out: percent (%) in vitro complex I activity relative to solvent control
[3] = M. musculus (heart) mitochondria, Mean of replicates, read-out: in vitro complex I activity relative to solvent control
[4] = M. musculus (heart) mitochondria, single replicate, read-out: in vitro complex I activity relative to solvent control

Chain of M. musculus (heart) complex I (Q91WD5 34-463): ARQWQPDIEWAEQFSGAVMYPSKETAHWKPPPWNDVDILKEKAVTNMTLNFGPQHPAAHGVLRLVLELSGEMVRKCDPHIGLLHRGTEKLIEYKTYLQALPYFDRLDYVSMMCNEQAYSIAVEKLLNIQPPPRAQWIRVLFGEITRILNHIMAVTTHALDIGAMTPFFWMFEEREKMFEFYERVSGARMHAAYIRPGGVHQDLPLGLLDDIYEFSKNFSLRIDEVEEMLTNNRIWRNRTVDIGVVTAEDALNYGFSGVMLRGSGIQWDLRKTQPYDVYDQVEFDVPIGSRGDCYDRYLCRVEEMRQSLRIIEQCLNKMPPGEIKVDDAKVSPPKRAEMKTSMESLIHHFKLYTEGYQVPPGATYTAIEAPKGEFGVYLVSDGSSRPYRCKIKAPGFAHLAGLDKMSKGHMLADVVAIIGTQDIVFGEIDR
Chain of M. musculus (heart) complex I (Q9DC70 36-224): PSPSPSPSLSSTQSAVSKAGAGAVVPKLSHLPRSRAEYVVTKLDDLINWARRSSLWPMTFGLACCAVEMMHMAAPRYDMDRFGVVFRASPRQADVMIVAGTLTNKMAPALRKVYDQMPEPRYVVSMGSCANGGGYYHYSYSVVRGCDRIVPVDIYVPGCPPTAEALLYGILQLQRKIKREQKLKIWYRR
Chain of M. musculus (heart) complex I (P03888 whole entry): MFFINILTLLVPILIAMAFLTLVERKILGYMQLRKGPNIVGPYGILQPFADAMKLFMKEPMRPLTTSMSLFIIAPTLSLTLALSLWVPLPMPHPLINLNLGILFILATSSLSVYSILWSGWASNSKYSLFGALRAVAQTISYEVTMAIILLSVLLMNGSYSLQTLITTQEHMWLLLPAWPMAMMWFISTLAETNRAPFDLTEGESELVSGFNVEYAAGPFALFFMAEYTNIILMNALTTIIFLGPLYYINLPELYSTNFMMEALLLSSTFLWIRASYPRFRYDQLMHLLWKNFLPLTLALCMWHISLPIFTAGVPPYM

Compound: CC(C)Cc1ccc(C(C)c2nc3ccccc3n2C)cc1 (centres unmarked) [NPD8790]
- remaining activity at 0.125 µM [1]: 101%
- remaining activity at 0.125 µM [2]: 99.7%
- remaining activity at 0.313 µM [1]: 97.5%
- remaining activity at 0.313 µM [2]: 97.7%
- remaining activity at 0.625 µM [1]: 100%
- remaining activity at 0.625 µM [2]: 100%
- remaining activity at 1.5 µM [1]: 100%
- remaining activity at 1.5 µM [2]: 100%
- remaining activity at 3 µM [1]: 99.1%
- remaining activity at 3 µM [2]: 100%
- remaining activity at 15 µM [1]: 78.9%
- remaining activity at 15 µM [2]: 77.5%
- remaining activity at 37.5 µM [1]: 44.3%
- remaining activity at 37.5 µM [2]: 40.4%
- remaining activity at 75 µM [1]: 24.7%
- remaining activity at 75 µM [2]: 18%
- remaining activity at 0.06 µM (M. musculus (heart) mitochondria, 0.06 µM, Mean of replicates, read-out: in vitro complex I activity relative to solvent control): 103%
- remaining activity at 0.13 µM [3]: 101%
- remaining activity at 0.13 µM [4]: 99.7%
- remaining activity at 0.313 µM [3]: 97.5%
- remaining activity at 0.313 µM [4]: 97.7%
- remaining activity at 0.625 µM [3]: 100%
- remaining activity at 0.625 µM [4]: 100%
- remaining activity at 1.5 µM [3]: 100%
- remaining activity at 1.5 µM [4]: 100%
- remaining activity at 3 µM [3]: 99.1%
- remaining activity at 3 µM [4]: 100%
- remaining activity at 15 µM [3]: 78.9%
- remaining activity at 15 µM [4]: 77.5%
- remaining activity at 37.5 µM [3]: 44.3%
- remaining activity at 37.5 µM [4]: 40.4%
- remaining activity at 75 µM [3]: 24.7%
- remaining activity at 75 µM [4]: 18%
- activity at 0.0001 µM (M. musculus, Mean of replicates, read-out: Complex I activity, dose-response data): 100%
- activity at 0.0001 µM (M. musculus, individual replicates (Rep), read-out: Complex I activity, dose-response data): 100%
- activity at 0.0005 µM (M. musculus, dose 0.0005 µM, Mean of replicates, read-out: Complex I activity, dose-response data): 103%
- Complex I activity, dose-response data (M. musculus, dose 0.0005 µM, individual replicates (Rep)): 104.677 and 101.090 and 100.240
- activity at 0.0005 µM (M. musculus, dose 0.0005 µM, individual replicates (Rep), read-out: Complex I activity, dose-response data): 105%
- activity at 0.001 µM (M. musculus, dose 0.001 µM, Mean of replicates, read-out: Complex I activity, dose-response data): 103%
- Complex I activity, dose-response data (M. musculus, dose 0.001 µM, individual replicates (Rep)): 105.312 and 100.449 and 100.153
- activity at 0.001 µM (M. musculus, dose 0.001 µM, individual replicates (Rep), read-out: Complex I activity, dose-response data): 106%
- activity at 0.0025 µM (M. musculus, dose 0.0025 µM, Mean of replicates, read-out: Complex I activity, dose-response data): 104%
- Complex I activity, dose-response data (M. musculus, dose 0.0025 µM, individual replicates (Rep)): 112.270 and 101.643 and 99.207
- activity at 0.0025 µM (M. musculus, dose 0.0025 µM, individual replicates (Rep), read-out: Complex I activity, dose-response data): 103%
- activity at 0.005 µM (M. musculus, dose 0.005 µM, Mean of replicates, read-out: Complex I activity, dose-response data): 104%
- Complex I activity, dose-response data (M. musculus, dose 0.005 µM, individual replicates (Rep)): 110.480 and 103.776 and 102.056
- activity at 0.005 µM (M. musculus, dose 0.005 µM, individual replicates (Rep), read-out: Complex I activity, dose-response data): 101%
- activity at 0.013 µM (M. musculus, dose 0.013 µM, Mean of replicates, read-out: Complex I activity, dose-response data): 104%
- Complex I activity, dose-response data (M. musculus, dose 0.013 µM, individual replicates (Rep)): 111.361 and 104.185 and 100.073
- activity at 0.013 µM (M. musculus, dose 0.013 µM, individual replicates (Rep), read-out: Complex I activity, dose-response data): 99.2%
- activity at 0.025 µM (M. musculus, dose 0.025 µM, Mean of replicates, read-out: Complex I activity, dose-response data): 106%
- Complex I activity, dose-response data (M. musculus, dose 0.025 µM, individual replicates (Rep)): 117.035 and 103.670 and 100.685
- activity at 0.025 µM (M. musculus, dose 0.025 µM, individual replicates (Rep), read-out: Complex I activity, dose-response data): 102%
- activity at 0.063 µM (M. musculus, dose 0.063 µM, Mean of replicates, read-out: Complex I activity, dose-response data): 103%
- Complex I activity, dose-response data (M. musculus, dose 0.063 µM, individual replicates (Rep)): 102.752 and 117.261 and 99.301 and 94.461
- activity at 0.125 µM (M. musculus, dose 0.125 µM, Mean of replicates, read-out: Complex I activity, dose-response data): 101%
- Complex I activity, dose-response data (M. musculus, dose 0.125 µM, individual replicates (Rep)): 109.547 and 101.293 and 94.390
- activity at 0.125 µM (M. musculus, dose 0.125 µM, individual replicates (Rep), read-out: Complex I activity, dose-response data): 99.7%
- Complex I activity, dose-response data (M. musculus, dose 0.313 µM, individual replicates (Rep)): 201.293 and 194.390
- activity at 0.313 µM (M. musculus, dose 0.313 µM, individual replicates (Rep), read-out: Complex I activity, dose-response data): 210%
- Complex I activity, dose-response data (M. musculus, dose 0.625 µM, individual replicates (Rep)): 301.293 and 294.390
- activity at 0.625 µM (M. musculus, dose 0.625 µM, individual replicates (Rep), read-out: Complex I activity, dose-response data): 310%
- Complex I activity, dose-response data (M. musculus, dose 1.5 µM, individual replicates (Rep)): 401.293 and 394.390
- activity at 1.5 µM (M. musculus, dose 1.5 µM, individual replicates (Rep), read-out: Complex I activity, dose-response data): 410%
- activity at 3 µM (M. musculus, dose 3 µM, Mean of replicates, read-out: Complex I activity, dose-response data): 99.1%
- Complex I activity, dose-response data (M. musculus, dose 3 µM, individual replicates (Rep)): 102.668 and 98.080 and 95.248
- activity at 3 µM (M. musculus, dose 3 µM, individual replicates (Rep), read-out: Complex I activity, dose-response data): 100%
- activity at 15 µM (M. musculus, dose 15 µM, Mean of replicates, read-out: Complex I activity, dose-response data): 78.9%
- Complex I activity, dose-response data (M. musculus, dose 15 µM, individual replicates (Rep)): 87.100 and 75.283 and 75.658
- activity at 15 µM (M. musculus, dose 15 µM, individual replicates (Rep), read-out: Complex I activity, dose-response data): 77.5%
- activity at 37.5 µM (M. musculus, dose 37.5 µM, Mean of replicates, read-out: Complex I activity, dose-response data): 44.3%
- Complex I activity, dose-response data (M. musculus, dose 37.5 µM, individual replicates (Rep)): 50.337 and 43.421 and 43.042
- activity at 37.5 µM (M. musculus, dose 37.5 µM, individual replicates (Rep), read-out: Complex I activity, dose-response data): 40.4%
- activity at 75 µM (M. musculus, dose 75 µM, Mean of replicates, read-out: Complex I activity, dose-response data): 24.7%
- Complex I activity, dose-response data (M. musculus, dose 75 µM, individual replicates (Rep)): 29.417 and 25.967 and 25.618
- activity at 75 µM (M. musculus, dose 75 µM, individual replicates (Rep), read-out: Complex I activity, dose-response data): 18%
- IC50 (heart mitochondria): 28.8 µM and 28.9 µM
